Measurements: patent EP3173421A1, “PEPTIDIC COMPOUNDS USEFUL AS ANTIBACTERIAL AGENTS” (Universitat de Barcelona, priority 2015, dated 2017)
Values after ≈ are worked out from the molar mass of the structure shown. Where two headings read alike, the source gives them in different places. Marks after values point to notes of the source that are not given here. Where a SMILES comes first, the peptide text is derived from it. Bridges are numbered along the chain shown (N, C = ends). Where no end group is shown, it is not given here. [ ]: non-standard residue; d: D form. The star is where a group is joined. ξ: configuration not given here. dAoc(2) = CCCCCC[C@@H](N)C(=O)O; ξLac(3-iPr) = CC(C)CC(O)C(=O)O; Decanoyl = CCCCCCCCCC(=O)*; Nonanoyl = CCCCCCCCC(=O)*; Heptanoyl = CCCCCCC(=O)*; Nle = CCCC[C@H](N)C(=O)O; Octanoyl = CCCCCCCC(=O)*; Dab = NCC[C@H](N)C(=O)O; Hexanoyl = CCCCCC(=O)*

Key:
Escherichia coli VAL 5 = assay type: cell-based
Description: (§1) E. coli strains: NDM-1 (multidrug resistant strain) and VAL10, VAL5 and MAC21 strains show intermediante resistance to quinolones

Escherichia coli MAC21a = assay type: cell-based
Description: as §1

Escherichia coli NDM-1 = assay type: cell-based
Description: as §1

Escherichia coli VAL 10 = assay type: cell-based
Description: as §1

[1] = tested on: Colistin-resistant A. baumannii CR49; assay type: cell-based
Procedure: (§7) For resistant and multi-drug resistant bacteria Gram negative bacteria, the test was essentially the same with slight changes in the amounts used: samples of a final volume of 100µL were prepared as follows: aliquots (50 µL) of a suspension containing bacteria at a concentration of 1.5x10^6 colony-forming units/mL in culture medium (MH, Muller Hinton Broth, Difco, USA), adjusted at pH 7.4, were added to 100µL of solution containing the peptide prepared from a stock solution of 1024 mg/L peptide in water in serial 2-fold dilutions in MH broth adjusted to pH 7.4

[2] = tested on: Escherichia coli ATCC 8739; assay type: cell-based
Description: (§2) Bacterial strains used for the antibacterial activity tests were obtained from the American Type Culture Collection (ATCC, Rockville, MD, USA): • Non resistant Gram-negative bacterias: • Escherichia coli ATCC 8739 • Pseudomonas aeruginosa ATCC 9027 • Non resistant Gram-positive bacteria: • Staphylococcus aureus ATTC6538

[3] = tested on: Pseudomonas aeruginosa ATCC 9027; assay type: cell-based
Description: as §2

[4] = tested on: Staphylococcus aureus ATTC6538; assay type: cell-based
Description: as §2

[5] = tested on: Colistin-resistant A. baumannii Ab99; assay type: cell-based
Procedure: as §7

[6] = tested on: Pseudomonas aeruginosa 36a; assay type: cell-based
Procedure: as §7

[7] = tested on: Pseudomonas aeruginosa 38a; assay type: cell-based
Procedure: as §7

[8] = tested on: Escherichia coli ATCC 8739; details: E coli ATCC8739 (non-resistant); comparative examples, extracted from Rabanal et al. 2015; cited from earlier work
[9] = tested on: Pseudomonas aeruginosa ATCC 9027; details: P. aeruginosa ATTC9027 (non-resistant); comparative examples, extracted from Rabanal et al. 2015; cited from earlier work
[10] = tested on: Staphylococcus aureus ATTC6538; details: S. aureus ATTC6538; comparative examples, extracted from Rabanal et al. 2015; cited from earlier work
[11] = tested on: Pseudomonas aeruginosa 12R; assay type: cell-based; details: P. aeruginosa 12R
Procedure: as §7
(§8) Samples of resistant and multi-drug resistant bacteria were from clinical origin and not standardized: • Resistant Gram-negative bacterias used: • Escherichia coli VAL 5 • Escherichia coli VAL 10 • Escherichia coli MAC21a • Escherichia coli NDM-1 • Pseudomonas aeruginosa 36a • Pseudomonas aeruginosa 38a • Pseudomonas aeruginosa 21 R • Pseudomonas aeruginosa 21 S • Pseudomonas aeruginosa 12R • Pseudomonas aeruginosa 12S • Colistin-resistant A. baumannii CR49 • Colistin-resistant A. baumannii Ab99 […]

[12] = tested on: Pseudomonas aeruginosa 21 R; details: P. aeruginosa 21R
Procedure: (§3) The antibacterial activity of the lipopeptides was measured in sterile 96-well plates (Corning Costar 3598 microtiter plates). Samples of a final volume of 200µL were prepared as follows: aliquots (100 µL) of a suspension containing bacteria at a concentration of 10^5 colony-forming units/mL in culture medium (MH, Muller Hinton Broth, Difco, USA), adjusted at pH 7.4, were added to 100µL of solution containing the peptide prepared from a stock solution of 1 mg/mL peptide in water in serial 2-fold dilutions in MH broth adjusted to pH 7.4 (Jorgensen and Turnide, 2003). Inhibition of bacterial growth was determined by measuring the absorbance at 492 nm with a Absorbance Microplate reader ELx 800 (Bio-tek Instruments) after an incubation of 18-20 h at 37°C. Antibacterial activities are expressed as the MIC, the concentration at which no growth is observed after 18-20 h of incubation. Microorganisms were cultured on Tryptycase Soy Broth (Pronadisa, Barcelona) and incubated at 37°C until growth. Then a loopfull was streaked on Trypticase Soy Agar (Pronadisa, Barcelona) and incubated at 37°C until colony formation occurs. Microorganisms were preserved on cryobilles (EAS laboratoire, France) at -20°C.
(§4) For resistant and multi-drug resistant bacteria Gram negative bacteria, the test was essentially the same with slight changes in the amounts used: samples of a final volume of 100µL were prepared as follows: aliquots (50 µL) of a suspension containing bacteria at a concentration of 1.5x10^6 colony-forming units/mL in culture medium (MH, Muller Hinton Broth, Difco, USA), adjusted at pH 7.4, were added to […] of solution containing the peptide prepared from a stock solution of 1024 mg/L peptide in water in serial 2-fold dilutions in MH broth adjusted to pH 7.4
(§5) Samples of resistant and multi-drug resistant bacteria were from clinical origin and not standardized: • Resistant Gram-negative bacterias used: • Escherichia coli VAL 5 • Escherichia coli VAL 10 • Escherichia coli MAC21a • Escherichia coli NDM-1 • Pseudomonas aeruginosa 36a • Pseudomonas aeruginosa 38a • Pseudomonas aeruginosa 21 R • Pseudomonas aeruginosa 21 S • Pseudomonas aeruginosa 12R • Pseudomonas aeruginosa 12S • Colistin-resistant A. baumannii CR49 • Colistin-resistant A. baumannii Ab99
(§6) P. aeruginosa strains are highly-resistant: For instance, 38a and 36a are resistant to Ceftazidime, Ciprofloxacin, Imipenem, Piperacillin-tazobactam; 21S is resistant to Ceftazidime, Ciprofloxacin, Imipenem, Piperacillin-tazobactam and tobramycin; 21 R is resistant to Ciprofloxacin, tobramycin and colistin; 12S is resistant to cefotoxin, piperacillin/tazobactam, aztreonam, gentamicin and amikacin; and 12R is resistant to ceftazidime, cefotoxin,cefepime, piperacillin/tazobactam, aztreonam,imipenem, gentamicin, amikacin and colistin.

[13] = tested on: Pseudomonas aeruginosa 21 S; details: P. aeruginosa 21S
Procedure: as §3, §4, §5, §6

[14] = tested on: Pseudomonas aeruginosa 12S; assay type: cell-based; details: P. aeruginosa 12S
Procedure: as §7, §8

| Molecule | MIC (Escherichia coli VAL 5) [µg/mL] | MIC (Escherichia coli MAC21a) [µg/mL] | MIC (Escherichia coli NDM-1) [µg/mL] | MIC (Escherichia coli VAL 10) [µg/mL] | MIC [1] [µg/mL] | MIC [2] [µg/mL] | MIC ([3]; ATCC 9027) [µg/mL] | MIC [4] [µg/mL] | MIC [5] [µg/mL] | MIC ([6]; 36a) [µg/mL] | MIC ([7]; 38a) [µg/mL] | MIC [11] [µg/mL] | MIC [12] [µg/mL] | MIC [13] [µg/mL] | MIC [14] [µg/mL] | other results |
| --- | --- | --- | --- | --- | --- | --- | --- | --- | --- | --- | --- | --- | --- | --- | --- | --- |
| CCCCCCC(=O)N[C@@H](Cc1c[nH]cn1)C(=O)N[C@H](C(=O)N[C@@H](CCN)C(=O)N[C@H]1CSSC[C@H](C(N)=O)NC(=O)[C@H](Cc2c[nH]cn2)NC(=O)[C@H](CCN)NC(=O)[C@H](CCCC)NC(=O)[C@@H](CCCCCC)NC(=O)[C@H](CCN)NC1=O)[C@@H](C)O [Example 6] (Heptanoyl-HT[Dab]C[Dab][dAoc(2)][Nle][Dab]H[dC]-NH2; disulfide 4-10) | 8 (≈ 6.33 µM) | 8 (≈ 6.33 µM) | 8 (≈ 6.33 µM) | 16 (≈ 12.7 µM) | 4 (≈ 3.17 µM) | 4 (≈ 3.17 µM) | 1 (≈ 0.791 µM) | 16 (≈ 12.7 µM) | 32 (≈ 25.3 µM) | 1 (≈ 0.791 µM) | 32 (≈ 25.3 µM) |  |  |  |  |  |
| Nonanoyl-[Dab]T[Dab]C[Dab][dF]L[Dab][Dab]C (cysteine pairing not given here) [Comparative Example 8a] |  |  |  |  |  |  |  |  |  |  |  |  |  |  |  | MIC [8]: 4 µg/mL; MIC [9]: 8 µg/mL; MIC [10]: >32 µg/mL |
| CCCCCC[C@H]1NC(=O)[C@H](CCN)NC(=O)[C@@H](NC(=O)[C@H](CCN)NC(=O)[C@@H](NC(=O)[C@H](CCN)NC(=O)CCCCC)[C@@H](C)O)CSSC[C@H](C(N)=O)NC(=O)[C@H](CCN)NC(=O)[C@H](CCN)NC(=O)C(CC(C)C)OC1=O (stereo partly drawn) [Example 5, hexanoyl-Dab-Thr-Dab-cyclo(S-S)[Cys-Dab-DAoc-OLe-Dab-Dab-DCys]] (Hexanoyl-[Dab]T[Dab]C[Dab][dAoc(2)][ξLac(3-iPr)][Dab][Dab][dC]-NH2; disulfide 4-10) |  |  |  |  |  | 2 to 4 | <0.25 | 32 (≈ 27.2 µM) |  |  |  |  |  |  |  |  |
| Decanoyl-[Dab]T[Dab]C[Dab][dF]L[Dab][Dab][dC] (cysteine pairing not given here) [Comparative Example 8b] |  |  |  |  |  |  |  |  |  |  |  |  |  |  |  | MIC [8]: 2 µg/mL; MIC [9]: 4 µg/mL; MIC [10]: 8 µg/mL |
| CCCCCCCC(=O)N[C@@H](CCN)C(=O)N[C@H](C(=O)N[C@@H](CCN)C(=O)N[C@H]1CSSC[C@H](C(N)=O)NC(=O)[C@H](CCN)NC(=O)[C@H](CCN)NC(=O)C(CC(C)C)OC(=O)[C@@H](CCCCCC)NC(=O)[C@H](CCN)NC1=O)[C@@H](C)O (stereo partly drawn) [Example 4, octanoyl-Dab-Thr-Dab-cyclo(S-S)[Cys-Dab-DAoc-OLe-Dab-Dab-DCys]] (Octanoyl-[Dab]T[Dab]C[Dab][dAoc(2)][ξLac(3-iPr)][Dab][Dab][dC]-NH2; disulfide 4-10) | 1 (≈ 0.83 µM) | 8 (≈ 6.64 µM) | 1 (≈ 0.83 µM) | 8 (≈ 6.64 µM) | 16 (≈ 13.3 µM) | 1 (≈ 0.83 µM) | 0.25 (≈ 0.208 µM) |  | 8 (≈ 6.64 µM) |  |  | 0.25 (≈ 0.208 µM) | 2 (≈ 1.66 µM) | 0.25 (≈ 0.208 µM) | 0.125 (≈ 0.104 µM) | MIC ([6]; P. aeruginosa 36a): 0.125 µg/mL (≈ 0.104 µM); MIC ([7]; P. aeruginosa 38a): 0.125 µg/mL (≈ 0.104 µM) |
| CCCCCC[C@@H](N)C(=O)N[C@H](C(=O)N[C@@H](CCN)C(=O)N[C@H]1CSSC[C@H](C(N)=O)NC(=O)[C@H](CCN)NC(=O)[C@H](CCN)NC(=O)C(CC(C)C)OC(=O)[C@@H](CCCCCC)NC(=O)[C@H](CCN)NC1=O)[C@@H](C)O (stereo partly drawn) [Example 3, DAoc-Thr-Dab-cyclo(S-S)[Cys-Dab-DAoc-OLe-Dab-Dab-DCys]] (H-[dAoc(2)]T[Dab]C[Dab][dAoc(2)][ξLac(3-iPr)][Dab][Dab][dC]-NH2; disulfide 4-10) | 2 (≈ 1.79 µM) | 8 (≈ 7.15 µM) | 2 (≈ 1.79 µM) | 16 (≈ 14.3 µM) | 8 (≈ 7.15 µM) | 2 (≈ 1.79 µM) | 0.25 (≈ 0.223 µM) |  | 8 (≈ 7.15 µM) | 0.5 (≈ 0.447 µM) | 4 (≈ 3.57 µM) | 0.25 (≈ 0.223 µM) | 0.125 (≈ 0.112 µM) | 0.25 (≈ 0.223 µM) | 0.5 (≈ 0.447 µM) |  |
| CCCCCCC(=O)N[C@@H](CCN)C(=O)N[C@H](C(=O)N[C@@H](CCN)C(=O)N[C@H]1CSSC[C@H](C(N)=O)NC(=O)[C@H](CCN)NC(=O)[C@H](CCN)NC(=O)C(CC(C)C)OC(=O)[C@@H](CCCCCC)NC(=O)[C@H](CCN)NC1=O)[C@@H](C)O (stereo partly drawn) [Example 2, heptanoyl-Dab-Thr-Dab-cyclo(S-S)[Cys-Dab-DAoc-OLe-Dab-Dab-DCyc]] (Heptanoyl-[Dab]T[Dab]C[Dab][dAoc(2)][ξLac(3-iPr)][Dab][Dab][dC]-NH2; disulfide 4-10) | 1 (≈ 0.84 µM) | 8 (≈ 6.72 µM) | 1 (≈ 0.84 µM) | 32 (≈ 26.9 µM) | 16 (≈ 13.4 µM) | 4 (≈ 3.36 µM) | 1 to 2 | 64 (≈ 53.8 µM) | 16 (≈ 13.4 µM) | 1 (≈ 0.84 µM) | 0.125 (≈ 0.105 µM) | 0.25 (≈ 0.21 µM) | 2 (≈ 1.68 µM) | 0.25 (≈ 0.21 µM) | 0.25 (≈ 0.21 µM) |  |
| CCCCCC[C@H]1NC(=O)[C@H](CCN)NC(=O)[C@@H](NC(=O)[C@H](CCN)NC(=O)[C@@H](NC(=O)[C@H](CCN)NC(=O)CCCCC)[C@@H](C)O)CSSC[C@H](C(N)=O)NC(=O)[C@H](CCN)NC(=O)[C@H](CCN)NC(=O)[C@H](CCCC)NC1=O [Example 7, hexanoyl-Dab-Thr-Dab-cyclo(S-S)[Cys-Dab-DAoc-Nle-Dab-Dab-DCys]] (Hexanoyl-[Dab]T[Dab]C[Dab][dAoc(2)][Nle][Dab][Dab][dC]-NH2; disulfide 4-10) |  |  |  |  |  | 8 (≈ 6.81 µM) |  | >32 |  |  |  |  |  |  |  | MIC ([3]; P. aeruginosa ATTC9027 (non-resistant)): 1-2* µg/ml |
| CCCCCCC(=O)N[C@@H](CCN)C(=O)N[C@H](C(=O)N[C@@H](CCN)C(=O)N[C@H]1CSSC[C@H](C(N)=O)NC(=O)[C@H](CCN)NC(=O)[C@H](CCN)NC(=O)[C@H](CCCC)NC(=O)[C@@H](CCCCCC)NC(=O)[C@H](CCN)NC1=O)[C@@H](C)O [Example 1, heptanoyl-Dab-Thr-Dab-cyclo(S-S)[Cys-Dab-DAoc-Nle-Dab-Dab-DCys]] (Heptanoyl-[Dab]T[Dab]C[Dab][dAoc(2)][Nle][Dab][Dab][dC]-NH2; disulfide 4-10) | 1 (≈ 0.841 µM) | <0.5 | ≤ 0.5 | 1 (≈ 0.841 µM) |  | 0.5 to 1 | 0.5 (≈ 0.42 µM) | 16 (≈ 13.5 µM) |  | 0.06 (≈ 0.0504 µM) | 0.03 (≈ 0.0252 µM) | 1 (≈ 0.841 µM) | 0.25 (≈ 0.21 µM) | 0.03 (≈ 0.0252 µM) | 0.5 (≈ 0.42 µM) |  |
